Experimental data published in ChEMBL document CHEMBL1156163, “(18)F Labeled benzimidazole derivatives as potential radiotracer for positron emission tomography (PET) tumor imaging” (Bioorg Med Chem, 2010).

Assays:
[1] = Ratio of drug uptake in tumor to blood of mouse S180 cells xenografted Kunming mouse at 10 to 20 uCi, iv after 120 mins by gamma counting; format: ADME, organism-based, CCRF S-180; settings: tumour, 2 h
[2] = Ratio of drug uptake in tumor to muscle of mouse S180 cells xenografted Kunming mouse at 10 to 20 uCi, iv after 120 mins by gamma counting; format: ADME, organism-based, CCRF S-180; settings: in vivo, 2 h
[3] = Ratio of drug uptake in tumor to brain of mouse S180 cells xenografted Kunming mouse at 10 to 20 uCi, iv after 120 mins by gamma counting; format: ADME, organism-based, CCRF S-180; settings: in vivo, 2 h
Heart [4] = experiment: Biodistribution in mouse S180 cells xenografted Kunming mouse heart at 10 to 20 uCi, iv after 5 mins by gamma counting; format: ADME, organism-based, CCRF S-180; settings: in vivo
Liver [5] = experiment: Biodistribution in mouse S180 cells xenografted Kunming mouse liver at 10 to 20 uCi, iv after 5 mins by gamma counting; format: ADME, organism-based, CCRF S-180; settings: in vivo
Pancreas [6] = experiment: Biodistribution in mouse S180 cells xenografted Kunming mouse pancreas at 10 to 20 uCi, iv after 5 mins by gamma counting; format: ADME, organism-based, CCRF S-180; settings: in vivo
Kidney [7] = experiment: Biodistribution in mouse S180 cells xenografted Kunming mouse kidney at 10 to 20 uCi, iv after 5 mins by gamma counting; format: ADME, organism-based, CCRF S-180; settings: in vivo
Muscle tissue [8] = experiment: Biodistribution in mouse S180 cells xenografted Kunming mouse muscle at 10 to 20 uCi, iv after 5 mins by gamma counting; format: ADME, organism-based, CCRF S-180; settings: in vivo
Blood [9] = experiment: Biodistribution in mouse S180 cells xenografted Kunming mouse blood at 10 to 20 uCi, iv after 5 mins by gamma counting; format: ADME, organism-based, CCRF S-180; settings: in vivo
[10] = Biodistribution in mouse S180 cells xenografted Kunming mouse tumor at 10 to 20 uCi, iv after 5 mins by gamma counting; format: ADME, organism-based, Neoplasm, CCRF S-180; settings: in vivo
[11] = Ratio of drug uptake in tumor to muscle of mouse S180 cells xenografted Kunming mouse at 10 to 20 uCi, iv after 5 mins by gamma counting; format: ADME, organism-based, CCRF S-180; settings: in vivo
Heart [12] = experiment: Biodistribution in mouse S180 cells xenografted Kunming mouse heart at 10 to 20 uCi, iv after 15 mins by gamma counting; format: ADME, organism-based, CCRF S-180; settings: in vivo, 0.25 h
Liver [13] = experiment: Biodistribution in mouse S180 cells xenografted Kunming mouse liver at 10 to 20 uCi, iv after 15 mins by gamma counting; format: ADME, organism-based, CCRF S-180; settings: in vivo, 0.25 h
Pancreas [14] = experiment: Biodistribution in mouse S180 cells xenografted Kunming mouse pancreas at 10 to 20 uCi, iv after 15 mins by gamma counting; format: ADME, organism-based, CCRF S-180; settings: in vivo, 0.25 h
Kidney [15] = experiment: Biodistribution in mouse S180 cells xenografted Kunming mouse kidney at 10 to 20 uCi, iv after 15 mins by gamma counting; format: ADME, organism-based, CCRF S-180; settings: in vivo, 0.25 h
Muscle tissue [16] = experiment: Biodistribution in mouse S180 cells xenografted Kunming mouse muscle at 10 to 20 uCi, iv after 15 mins by gamma counting; format: ADME, organism-based, CCRF S-180; settings: in vivo, 0.25 h
Brain [17] = experiment: Biodistribution in mouse S180 cells xenografted Kunming mouse brain at 10 to 20 uCi, iv after 15 mins by gamma counting; format: ADME, organism-based, CCRF S-180; settings: in vivo, 0.25 h
[18] = Biodistribution in mouse S180 cells xenografted Kunming mouse tumor at 10 to 20 uCi, iv after 15 mins by gamma counting; format: ADME, organism-based, Neoplasm, CCRF S-180; settings: in vivo, 0.25 h
[19] = Ratio of drug uptake in tumor to blood of mouse S180 cells xenografted Kunming mouse at 10 to 20 uCi, iv after 15 mins by gamma counting; format: ADME, organism-based, CCRF S-180; settings: tumour, 0.25 h
[20] = Ratio of drug uptake in tumor to brain of mouse S180 cells xenografted Kunming mouse at 10 to 20 uCi, iv after 15 mins by gamma counting; format: ADME, organism-based, CCRF S-180; settings: in vivo, 0.25 h
Heart [21] = experiment: Biodistribution in mouse S180 cells xenografted Kunming mouse heart at 10 to 20 uCi, iv after 30 mins by gamma counting; format: ADME, organism-based, CCRF S-180; settings: in vivo, 0.5 h
Liver [22] = experiment: Biodistribution in mouse S180 cells xenografted Kunming mouse liver at 10 to 20 uCi, iv after 30 mins by gamma counting; format: ADME, organism-based, CCRF S-180; settings: in vivo, 0.5 h
Pancreas [23] = experiment: Biodistribution in mouse S180 cells xenografted Kunming mouse pancreas at 10 to 20 uCi, iv after 30 mins by gamma counting; format: ADME, organism-based, CCRF S-180; settings: in vivo, 0.5 h
Lung [24] = experiment: Biodistribution in mouse S180 cells xenografted Kunming mouse lung at 10 to 20 uCi, iv after 30 mins by gamma counting; format: ADME, organism-based, CCRF S-180; settings: in vivo, 0.5 h
Blood [25] = experiment: Biodistribution in mouse S180 cells xenografted Kunming mouse blood at 10 to 20 uCi, iv after 30 mins by gamma counting; format: ADME, organism-based, CCRF S-180; settings: in vivo, 0.5 h
Brain [26] = experiment: Biodistribution in mouse S180 cells xenografted Kunming mouse brain at 10 to 20 uCi, iv after 30 mins by gamma counting; format: ADME, organism-based, CCRF S-180; settings: in vivo, 0.5 h
[27] = Biodistribution in mouse S180 cells xenografted Kunming mouse tumor at 10 to 20 uCi, iv after 30 mins by gamma counting; format: ADME, organism-based, Neoplasm, CCRF S-180; settings: in vivo, 0.5 h
[28] = Ratio of drug uptake in tumor to muscle of mouse S180 cells xenografted Kunming mouse at 10 to 20 uCi, iv after 30 mins by gamma counting; format: ADME, organism-based, CCRF S-180; settings: in vivo, 0.5 h
[29] = Ratio of drug uptake in tumor to brain of mouse S180 cells xenografted Kunming mouse at 10 to 20 uCi, iv after 30 mins by gamma counting; format: ADME, organism-based, CCRF S-180; settings: in vivo, 0.5 h
Liver [30] = experiment: Biodistribution in mouse S180 cells xenografted Kunming mouse liver at 10 to 20 uCi, iv after 60 mins by gamma counting; format: ADME, organism-based, CCRF S-180; settings: in vivo, 1 h
Lung [31] = experiment: Biodistribution in mouse S180 cells xenografted Kunming mouse lung at 10 to 20 uCi, iv after 60 mins by gamma counting; format: ADME, organism-based, CCRF S-180; settings: in vivo, 1 h
Kidney [32] = experiment: Biodistribution in mouse S180 cells xenografted Kunming mouse kidney at 10 to 20 uCi, iv after 60 mins by gamma counting; format: ADME, organism-based, CCRF S-180; settings: in vivo, 1 h
[33] = Biodistribution in mouse S180 cells xenografted Kunming mouse tumor at 10 to 20 uCi, iv after 60 mins by gamma counting; format: ADME, organism-based, Neoplasm, CCRF S-180; settings: in vivo, 1 h
[34] = Ratio of drug uptake in tumor to blood of mouse S180 cells xenografted Kunming mouse at 10 to 20 uCi, iv after 60 mins by gamma counting; format: ADME, organism-based, CCRF S-180; settings: tumour, 1 h
[35] = Ratio of drug uptake in tumor to brain of mouse S180 cells xenografted Kunming mouse at 10 to 20 uCi, iv after 60 mins by gamma counting; format: ADME, organism-based, CCRF S-180; settings: in vivo, 1 h
Heart [36] = experiment: Biodistribution in mouse S180 cells xenografted Kunming mouse heart at 10 to 20 uCi, iv after 120 mins by gamma counting; format: ADME, organism-based, CCRF S-180; settings: in vivo, 2 h
Liver [37] = experiment: Biodistribution in mouse S180 cells xenografted Kunming mouse liver at 10 to 20 uCi, iv after 120 mins by gamma counting; format: ADME, organism-based, CCRF S-180; settings: in vivo, 2 h
Pancreas [38] = experiment: Biodistribution in mouse S180 cells xenografted Kunming mouse pancreas at 10 to 20 uCi, iv after 120 mins by gamma counting; format: ADME, organism-based, CCRF S-180; settings: in vivo, 2 h
Lung [39] = experiment: Biodistribution in mouse S180 cells xenografted Kunming mouse lung at 10 to 20 uCi, iv after 120 mins by gamma counting; format: ADME, organism-based, CCRF S-180; settings: in vivo, 2 h
Kidney [40] = experiment: Biodistribution in mouse S180 cells xenografted Kunming mouse kidney at 10 to 20 uCi, iv after 120 mins by gamma counting; format: ADME, organism-based, CCRF S-180; settings: in vivo, 2 h
Muscle tissue [41] = experiment: Biodistribution in mouse S180 cells xenografted Kunming mouse muscle at 10 to 20 uCi, iv after 120 mins by gamma counting; format: ADME, organism-based, CCRF S-180; settings: in vivo, 2 h
Blood [42] = experiment: Biodistribution in mouse S180 cells xenografted Kunming mouse blood at 10 to 20 uCi, iv after 120 mins by gamma counting; format: ADME, organism-based, CCRF S-180; settings: in vivo, 2 h
Brain [43] = experiment: Biodistribution in mouse S180 cells xenografted Kunming mouse brain at 10 to 20 uCi, iv after 120 mins by gamma counting; format: ADME, organism-based, CCRF S-180; settings: in vivo, 2 h

Ratio [1]: 1.63
Ratio [2]: 2.58
Ratio [3]: 9.8
Drug uptake (Heart [4]): 4.48 % ID/g
Drug uptake (Liver [5]): 4.13 % ID/g
Drug uptake (Pancreas [6]): 2.33 % ID/g
Drug uptake (Kidney [7]): 35.9 % ID/g
Drug uptake (Muscle tissue [8]): 1.78 % ID/g
Drug uptake (Blood [9]): 3.17 % ID/g
Drug uptake [10]: 2.28 % ID/g
Ratio [11]: 1.28
Drug uptake (Heart [12]): 2.66 % ID/g
Drug uptake (Liver [13]): 4.02 % ID/g
Drug uptake (Pancreas [14]): 1 % ID/g
Drug uptake (Kidney [15]): 13.79 % ID/g
Drug uptake (Muscle tissue [16]): 1.22 % ID/g
Drug uptake (Brain [17]): 0.44 % ID/g
Drug uptake [18]: 1.41 % ID/g
Ratio [19]: 0.63
Ratio [20]: 3.2
Drug uptake (Heart [21]): 1.76 % ID/g
Drug uptake (Liver [22]): 2.53 % ID/g
Drug uptake (Pancreas [23]): 1.03 % ID/g
Drug uptake (Lung [24]): 3.49 % ID/g
Drug uptake (Blood [25]): 1.36 % ID/g
Drug uptake (Brain [26]): 0.31 % ID/g
Drug uptake [27]: 1.49 % ID/g
Ratio [28]: 1.27
Ratio [29]: 4.81
Drug uptake (Liver [30]): 1.55 % ID/g
Drug uptake (Lung [31]): 2.35 % ID/g
Drug uptake (Kidney [32]): 4.2 % ID/g
Drug uptake [33]: 1.36 % ID/g
Ratio [34]: 1.43
Ratio [35]: 7.15
Drug uptake (Heart [36]): 0.26 % ID/g
Drug uptake (Liver [37]): 0.38 % ID/g
Drug uptake (Pancreas [38]): 0.2 % ID/g
Drug uptake (Lung [39]): 0.66 % ID/g
Drug uptake (Kidney [40]): 1.1 % ID/g
Drug uptake (Muscle tissue [41]): 0.19 % ID/g
Drug uptake (Blood [42]): 0.3 % ID/g
Drug uptake (Brain [43]): 0.05 % ID/g
Structure (SMILES): CCCc1nc2c(C)cc(C(=O)O)cc2n1CC[18F]
